Experimental data reported in EPA's ToxRefDB 2.

How the values were obtained:
dog [1] = settings: Sub-acute repeat dose toxicity, beagle, Oral, Gavage/Intubation, dose end: 7 day, group: systemic
dog [2] = settings: Sub-acute repeat dose toxicity, beagle, Oral, Gavage/Intubation, dose end: 5 day, group: systemic
rat [3] = settings: Sub-acute repeat dose toxicity, sprague dawley, Oral, Gavage/Intubation, dose end: 5 day, group: systemic
rat [4] = settings: Subchronic oral toxicity in rodents, other, Feed, dose end: 90 day, group: systemic
rat [5] = settings: Subchronic oral toxicity in rodents, fischer, Feed, dose end: 13 week, group: systemic
rat [6] = settings: Multigenerational reproductive toxicity study, sprague dawley, Oral, Feed, dose end: 2 generation
rat [7] = settings: Prenatal developmental toxicity study, wistar, Oral, Gavage/Intubation, dose end: 15 GD
[8] = systemic / in life observation / clinical signs / erythema + systemic / in life observation / clinical signs / prostration + systemic / in …
[9] = systemic / in life observation / clinical signs / erythema + systemic / in life observation / clinical signs / salivation
[10] = systemic / in life observation / clinical signs / abnormal feces
[11] = systemic / in life observation / clinical signs / abnormal feces + systemic / in life observation / clinical signs / emesis
[12] = systemic / in life observation / body weight / body weight + systemic / in life observation / clinical signs / [other] + systemic / in life …
[13] = systemic / in life observation / body weight / body weight + systemic / in life observation / food consumption / food consumption + systemic…
[14] = systemic / hematology / erythrocyte (rbc) count differential / erythrocyte (rbc) + systemic / hematology / hemoglobin (hgb) / hemoglobin (…
[15] = systemic / clinical chemistry / albumin / albumin + systemic / clinical chemistry / triglycerides / triglycerides
[16] = systemic / clinical chemistry / alkaline phosphatase (alp/alk) / alkaline phosphatase (alp/alk) + systemic / clinical chemistry / bile acids…
[17] = group: offspring, developmental / developmental malformation / testes / delayed descent + developmental / developmental landmark / preputial separation / …
[18] = group: parental, systemic / in life observation / body weight / body weight + systemic / organ weight / adrenal gland / relative to body weight + systemic / …
[19] = group: reproductive, reproductive / reproductive performance / estrous cycle / periodicity + reproductive / reproductive performance / fertility / fertility
[20] = group: developmental, systemic / in life observation / body weight / fetal weight + developmental / developmental malformation / mouth / jaw / cleft palate
[21] = group: maternal, reproductive / reproductive performance / postimplantation loss / postimplantation loss + reproductive / reproductive performance / …

COc1ccc(NC(=O)c2c[nH]c3c2C(=O)CCCC3)c(F)c1 gave an LOAEL (dog [1]; [8]) of over 250 mg/kg/day, an NOAEL (dog [1]; [8]) of at least 250 mg/kg/day and an LEL (dog [1]; [9]) of 10 mg/kg/day. For the same molecule, the NEL (dog [1]; [9]) was under 10 mg/kg/day, the LOAEL (dog [2]; [10]) was over 100 mg/kg/day and the NOAEL (dog [2]; [10]) was at least 100 mg/kg/day. For the same molecule, the LEL (dog [2]; [11]) was 5 mg/kg/day, the NEL (dog [2]; [11]) was under 5 mg/kg/day and the LOAEL (rat [3]; [12]) was over 250 mg/kg/day. It also gave an NOAEL (rat [3]; [12]) of at least 250 mg/kg/day, an LEL (rat [3]; [13]) of 25 mg/kg/day and an NEL (rat [3]; [13]) of under 25 mg/kg/day.

Work on CNc1ccccc1C(=O)OC [Methyl 2-(methylamino)benzoate] yielded an LOAEL (rat [4]; [14]) of over 244 mg/kg/day, an NEL (rat [4]; [14]) of 21 mg/kg/day and an NOAEL (rat [4]; [14]) of at least 244 mg/kg/day. It also gave an LEL (rat [4]; systemic / hematology / leukocyte (wbc) count differential / leukocyte (wbc) + systemic / organ weight / kidney / absolute + systemic / …) of 82 mg/kg/day.

With CCCCOC(=O)c1ccccc1C(=O)OCCCC [Dibutyl phthalate] the LEL (rat [5]; [15]) was 125 mg/kg/day, the NEL (rat [5]; [15]) was under 125 mg/kg/day and the LOAEL (rat [5]; [16]) was over 2000 mg/kg/day. For the same molecule, the NOAEL (rat [5]; [16]) was at least 2000 mg/kg/day, the LEL (rat [6]; [17]) was 531 mg/kg/day and the LOAEL (rat [6]; [17]) was over 531 mg/kg/day. For the same molecule, the NEL (rat [6]; [17]) was 51.8 mg/kg/day, the NOAEL (rat [6]; [17]) was at least 531 mg/kg/day and the LOAEL (rat [6]; [18]) was over 531 mg/kg/day. It also gave an NEL (rat [6]; [18]) of 1.61 mg/kg/day, an NOAEL (rat [6]; [18]) of at least 531 mg/kg/day and an LEL (rat [6]; group: parental, systemic / organ weight / adrenal gland / relative to body weight) of 5.35 mg/kg/day. It also gave an LEL (rat [6]; group: reproductive, reproductive / reproductive performance / estrous cycle / periodicity) of 95.3 mg/kg/day, an LOAEL (rat [6]; [19]) of over 1020 mg/kg/day and an NEL (rat [6]; [19]) of 9.24 mg/kg/day. It also gave an NOAEL (rat [6]; [19]) of at least 1020 mg/kg/day, an LOAEL (rat [7]; group: developmental, systemic / in life observation / body weight / fetal weight) of 630 mg/kg/day and an LEL (rat [7]; [20]) of 630 mg/kg/day. For the same molecule, the NEL (rat [7]; [20]) was 500 mg/kg/day, the NOAEL (rat [7]; [20]) was 500 mg/kg/day and the LEL (rat [7]; [21]) was 630 mg/kg/day. The LOAEL (rat [7]; [21]) was 630 mg/kg/day, the NEL (rat [7]; [21]) was 500 mg/kg/day and the NOAEL (rat [7]; [21]) was 500 mg/kg/day.
